Results published in PubChem BioAssay (NCI).
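A five-concentration, 48-hour dose response in 96-well plates underlies each endpoint, interpolated linearly between surrounding concentrations. The concentration for full growth arrest is given as TGI.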

Key:
Experiment in all cases: NCI tumour cell line growth inhibition, 48 h
SK-MEL-5 melanoma = system: SK-MEL-5 melanoma
MALME-3M melanoma = system: MALME-3M melanoma
HOP-62 NSCLC = system: HOP-62 NSCLC
MDA-N = system: MDA-N
RXF 393 renal = system: RXF 393 renal
A549 NSCLC = system: A549 NSCLC
SR leukemia = system: SR leukemia
NCI-H522 lung = system: NCI-H522 lung
IGROV1 ovarian = system: IGROV1 ovarian
SF-295 CNS = system: SF-295 CNS
K-562 leukemia = system: K-562 leukemia

| Structure (SMILES) | TGI (SK-MEL-5 melanoma) [µM] | TGI (MALME-3M melanoma) [µM] | TGI (HOP-62 NSCLC) [µM] | TGI (MDA-N) [µM] | TGI (RXF 393 renal) [µM] | TGI (A549 NSCLC) [µM] | TGI (SR leukemia) [µM] | TGI (NCI-H522 lung) [µM] | TGI (IGROV1 ovarian) [µM] | TGI (SF-295 CNS) [µM] | TGI (K-562 leukemia) [µM] |
| --- | --- | --- | --- | --- | --- | --- | --- | --- | --- | --- | --- |
| O=C1C=CC(=O)c2c1ccc1c3ccccc3n(CCCCCn3c4ccccc4c4ccc5c(c43)C(=O)C=CC5=O)c21 | > 86.1 | 31.9 | > 100 | 40.1 | 21.1 | > 100 | 6.22 | 4.37 | 20.6 | > 100 | 4.89 |
| Fc1ccc2c(c1)nc1n2C(c2c(Cl)cccc2Cl)SC1 (stereo not drawn) | 21.1 | 25.6 | 29.2 | 24.5 | 31.9 | 28.2 | > 100 | 28.7 | 27.1 | 26.8 |  |
| Nc1ccc2c(c1)C(=O)N1CCC[C@H]1C(=O)N2 | > 100 | > 100 | > 100 | > 100 | > 100 | > 100 | > 100 | > 100 | > 100 | > 100 | > 100 |
| CC(=O)Nc1sc(Br)cc1S(=O)(=O)c1ccc(Cl)cc1 |  | > 100 |  | > 100 | 48.4 | 90.5 | 50.5 | 47.6 | > 100 | > 100 | 78.3 |
| COC(=O)c1c(O)ccc2c1c1c(n2Cc2cc(OC)cc(OC)c2)C(=O)c2ccccc2C1 | > 100 | > 100 | > 100 | > 100 | 68.6 | > 100 | > 100 |  | > 100 | > 100 | > 100 |
| CC(=O)c1ccccc1NP(=O)(c1ccccc1)c1ccccc1 | > 100 | > 100 | > 100 | > 100 | > 100 | > 100 | > 100 | > 100 | > 100 | > 100 | > 100 |
| O=S(=O)(O)CCCc1cccc2ccccc12 | > 100 | > 100 | > 100 | > 100 | > 100 | > 100 | > 100 | > 100 | > 100 | > 100 | > 100 |
| O=[N+]([O-])c1ccc(CN(CCCl)OCCCl)cc1 | > 100 | > 100 | > 100 | > 100 | > 100 | > 100 | > 100 | > 100 | > 100 | > 100 | > 100 |
| COc1cccc(C(=O)Oc2ccc(OS(=O)(=O)c3ccc(C)cc3)cc2)c1C#N | 31.2 | > 100 | > 100 | > 100 | > 100 | > 100 | > 100 | > 100 | > 100 | > 100 | > 100 |
| O=C1Nc2cccc(Cl)c2/C1=C\c1c(Cl)nc2n1CCS2 | > 100 | > 100 | > 100 | > 100 | > 100 | > 100 | > 100 | > 100 | > 100 | > 100 | > 100 |
| Cc1[nH]c(=O)nc2nc3ccc(Cl)cc3c(NCCNCCO)c12 | 25.4 | 28.5 | 20.6 | 25.4 | 28.5 | 33 | > 100 | 12.9 | 25.4 | 30.2 | > 100 |
| COC[C@@H](N=CC(C)(C)C)C(C)C | > 100 | > 100 | > 100 | > 100 | > 100 | > 100 | > 100 | > 100 | > 100 | > 100 | > 100 |
| COc1cc(Nc2nc3ccccc3nc2C(=O)O)cc(OC)c1OC | > 100 | > 100 | > 100 | > 100 | > 100 | > 100 | > 100 | > 100 | > 100 | > 100 | > 100 |
| CN1C(=O)c2ccccc2OC12C=Cc1c(ccc3ccccc13)O2 (stereo not drawn) | 23 | 15.6 | 27.3 | 10.4 | 31.1 | 40.1 | > 100 | 6.27 | 30.8 | 12.7 | > 31.5 |
| CCOC1(OCC)C2C=CC1C(COS(=O)(=O)c1ccc(C)cc1)C2COS(=O)(=O)c1ccc(C)cc1 (stereo not drawn) | 31 | 77.1 | > 100 | > 100 | > 100 | > 100 | 58.6 | 57.1 | > 100 | > 100 | > 100 |
| N#CC1C(=S)NC(c2ccccc2)=CC12CCCCC2 (stereo not drawn) | 90.4 | 43.2 |  | > 100 | > 100 | > 100 | 50.2 | 42.2 | 70.2 |  | > 100 |
| CCN(CC)CCNc1ccc2nnn3c4ccc(OCCN(CC)CC)cc4c(=O)c1c23 |  |  | 72.9 | > 100 | > 100 | > 100 | 45.4 | > 100 |  | > 100 | > 100 |
| COc1cc(OC)c2nc(C)c(CCCl)c(Cl)c2c1 |  | > 100 | > 100 | > 100 | > 100 | > 100 | > 100 | > 100 | > 100 | > 100 | > 100 |
| O=C(/C=C/c1ccccc1)Oc1cccc(O)c1 | > 100 | > 100 | > 100 | > 100 | > 100 | > 100 | 48.6 | 29.5 | 43.6 | 34.3 |  |
| Cc1c(C)c2c(c(N)c1C#N)C(=O)N(NC(=O)c1ccccc1)C2=O | > 100 | > 100 |  | > 100 | > 100 | > 100 | > 100 | > 100 | > 100 | > 100 | > 100 |
